Article PMC10394673, “Module walking using an SH3-like cell-wall-binding domain leads to a new GH184 family of muramidases” (Acta Crystallographica. Section D, Structural Biology, 2023)
Peptide text beside a SMILES is read from it.

Columns and labels:
[1] = biological target: T1, TsCWBD (Trichophaea saccata, UniProt A0AA82WPC9); experiment: nanoDSF thermal shift; type: binding; details: pH 8.5; Chelex-treated and untreated protein
T1 construct: isolated N-terminal SH3-like CWBD, residues 1-73 of the 245-residue GH24 muramidase, about 10 kDa, recombinant; no catalytic domain
T1 sequence (A0AA82WPC9 1-73): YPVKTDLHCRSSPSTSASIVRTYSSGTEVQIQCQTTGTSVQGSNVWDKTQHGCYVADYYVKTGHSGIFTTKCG

[2] = biological target: T1, TsCWBD; experiment: X-ray crystal structure, […] A; type: binding; details: co-crystallized with 10 mM triglycine, pH 8.5; canonical SH3 specificity zone (Asp6, His8, Arg10); zinc-bridged crystal contact

NCC(=O)NCC(=O)NCC(=O)O [triglycine] (H-Gly-Gly-Gly-OH)
thermal shift [1]: the thermal shift is present for both treated and untreated samples, implying ligand binding | X-ray crystal structure, 1.18 A [2]: The triglycine in our structure is bound within the canonical specificity zone
